The source of these data is patent US20050085491A1, “Novel crystalline forms of valacyclovir hydrochloride” (priority 2003, published 2005).

“Also recorded” adds a separate entry of the source.

Data set [1] in a line: transformation of crystalline form on drying or squeezing (form identified by XRD). It counts as physicochemical. How it is done:
All powder x-ray diffraction patterns were obtained by methods known in the art using a Scintag X′TRA X-ray powder diffractometer, equipped with a solid state Si(Li) detector thermoelectrically cooled, at scanning speed of 3° min.^−1. The scanning range was 2-40 degrees two-theta. Copper radiation of […] was used. The term x-ray diffraction “peaks” as used herein refers to x-ray diffraction reflections measured using an x-ray powder diffractometer. “Wet” samples (i.e. samples not dried) were analyzed “as is”. Dry samples were gently ground before analysis.
In yet another embodiment, the present invention relates to transformation, especially by drying or thermal treatment, of herein disclosed crystalline forms of valacyclovir hydrochloride to valacyclovir hydrochloride form I.
In a further embodiment, the present invention relates to transformation, especially by drying or squeezing, of herein disclosed crystalline forms of valacyclovir hydrochloride to valacyclovir hydrochloride for IV.

Data set [2] in a line: transformation of crystalline form on exposure to relative humidity. The format is physicochemical. The note with it: atmosphere of about 50% relative humidity for a day or more.
The conditions of data set [3]: oral administration; cited from earlier work.
For data set [4] the following is noted: oral administration, healthy adults; cited from earlier work.
Setting [5] is: drying at 50° to 60° C. for about 30 min or more, hydrochloride.
Where [6] appears, read: drying, conditions not stated, hydrochloride.

Turning to `CC(C)[C@H](N)C(=O)OCCOCn1cnc2c(=O)nc(N)[nH]c21.Cl` [form IX, valacyclovir hydrochloride], the “crystalline form obtained on drying” value in data set [1] (setting [5]) was “yields an anhydrous form of valacyclovir hydrochloride”; in data set [1] (setting [6]), “mixture of form I and anhydrous form”.

Take `CC(C)[C@H](N)C(=O)OCCOCn1cnc2c(=O)nc(N)[nH]c21.Cl` [form V, valacyclovir hydrochloride]: in data set [1] (dried at 50° C. under vacuum, hydrochloride), the “crystalline form before and after drying” value is reported as “valacyclovir hydrochloride form V”. The “crystalline form obtained on drying” value in data set [1] (setting [6]) is reported as “form V”.

Take `CC(C)[C@H](N)C(=O)OCCOCn1cnc2c(=O)nc(N)[nH]c21.Cl` [form VIII, valacyclovir hydrochloride]: the “crystalline form obtained on drying” value in data set [1] (drying at 20° to 120° C. for at least about 30 min) is on record as “yields a hydrate of valacyclovir hydrochloride form I”; in data set [1] (drying at 50-120° C.), “resulted in form I”.

Regarding `CC(C)[C@H](N)C(=O)OCCOCn1cnc2c(=O)nc(N)[nH]c21.Cl` [form X, valacyclovir hydrochloride], the “crystalline form obtained on drying” value in data set [1] (setting [5]) was “yields a hydrate of valacyclovir form I”.

On to `CC(C)[C@H](N)C(=O)OCCOCn1cnc2c(=O)nc(N)[nH]c21.Cl` [form XI, valacyclovir hydrochloride], for which the “crystalline form obtained on drying” value in data set [1] (about 700 mm Hg, about 35° C., after 16 hours, about 35% humidity) is listed as “form VIII”; in data set [1] (about 700 mm Hg, about 35° C., after 20 hours, 30% humidity) it was “form IV”; in data set [1] (setting [6]) it was “transformed to form I; also recorded: converted to form I”; in data set [1] (vacuum of 250-350 mm Hg at about 35 degrees up to humidity of about 20%), “form IV”. Further, in data set [1] (water content reduced to about 15 to 25%, e.g. by drying at about 30° to about 50° C.), the “crystalline form obtained on reducing the water content” value is given as “transformation to form IV”. In addition, in data set [1] (wet sample squeezed on a Buchner filter up to humidity of about 20%), the “crystalline form obtained on squeezing” value was “form VIII”.

Regarding `CC(C)[C@H](N)C(=O)OCCOCn1cnc2c(=O)nc(N)[nH]c21.Cl` [form XII, valacyclovir hydrochloride], the “crystalline form obtained on exposure to humidity” value in data set [2] was “transformation to valacyclovir hydrochloride form I”.

Regarding `CC(C)[C@H](N)C(=O)OCCOCn1cnc2c(=O)[nH]c(N)nc21` [valacyclovir, 1-valine, 2-[(2-amino-1,6-dihydro-6-oxo-9H-purin-9-yl)methoxy]ethyl ester], the “absorption from the gastrointestinal tract” value in data set [3] is reported as “rapidly absorbed”. For the same compound, the conversion to acyclovir result in data set [4] is “converted rapidly and virtually completely to acyclovir”.
